Results reported in patent publication US6410054B1, “Immediate release eplerenone compositions” (G. D. Searle & Co., priority 1998, dated 2002).

Tests used:
[1] = Effect of food study: plasma pharmacokinetics fasted vs high-fat breakfast; type: in vivo, humans; conditions: for Plasma Concentration: 100 mg eplerenone capsule
Method: An open-label randomized, cross-over study was employed to evaluate the pharmacokinetic profiles of eplerenone under fasted and fed conditions, and the safety and tolerability of eplerenone. Safety was assessed based on adverse events, vital signs and clinical laboratory tests. Twelve healthy male subjects were randomized to receive a single 100 mg dose of eplerenone on days 1 and 8 under (i) fasted conditions, or (ii) immediately following a high-fat breakfast. The subjects were orally administered (dosed) a single 100 mg dose of eplerenone in the form of the capsule described in Example 7, together with approximately 200 to 240 mL of water at 0800 hours on days 1 and 8. Subjects randomized to receive a high-fat breakfast were to completely ingest the meal within 20 minutes prior to dosing. The high-fat meal contained approximately 33 g protein, 75 g fat, 58 g carbohydrates and 1000 calories. […] All adverse events were mild in severity.

[2] = Multiple dose study: plasma pharmacokinetics and urinary excretion; type: in vivo, humans
Method: Multiple oral dose tolerability and the pharmacokinetics of several dosages of eplerenone were evaluated in a double-blind, randomized, placebo-controlled, rising oral dose, sequential panel study of 40 healthy male subjects (five groups of eight subjects). The study medication was administered in […] sequential dose panels, with each panel including eplerenone, spironolactone and placebo. […] The 100 mg and 200 mg dose capsules corresponded to those described in Examples 7 and 8, respectively. Following a 48-hour interval, the study drug was administered once a day for 11 days. Antialdosterone activity was determined following a fludrocortisone challenge on Days 12-13.

COC(=O)C1CC2=CC(=O)CCC2(C)C23OC2CC2(C)C(CCC2(O)CCC(=O)O)C13 (stereo not shown) [Open Ring Lactone]
effect of high-fat meal on AUC0-96 ([1]; 100 mg capsule, fed vs fasted): minimal or no measurable effect | effect of high-fat meal on Cmax ([1]; 100 mg capsule, fed vs fasted): reduction | effect of high-fat meal on Tmax ([1]; 100 mg capsule, fed vs fasted): increase | effect of high-fat meal on T½ ([1]; 100 mg capsule, fed vs fasted): minimal or no measurable effect | Plasma Concentration ([1]; Fasted Conditions, 0.5 hours after dosing): 69.163 ng/mL | Plasma Concentration ([1]; Fasted Conditions, 1.0 hours after dosing): 91.208 ng/mL | Plasma Concentration ([1]; Fasted Conditions, 2.0 hours after dosing): 70.600 ng/mL | Plasma Concentration ([1]; Fasted Conditions, 3.0 hours after dosing): 58.833 ng/mL | Plasma Concentration ([1]; Fasted Conditions, 4.0 hours after dosing): 45.042 ng/mL | Plasma Concentration ([1]; Fasted Conditions, 6.0 hours after dosing): 31.773 ng/mL | Plasma Concentration ([1]; Fasted Conditions, 8.0 hours after dosing): 18.708 ng/mL | Plasma Concentration ([1]; Fasted Conditions, 28.0 hours after dosing): 0 ng/mL | Plasma Concentration ([1]; Fasted Conditions, 48.0 hours after dosing): 0 ng/mL | Plasma Concentration ([1]; Fasted Conditions, 72.0 hours after dosing): 0 ng/mL | Plasma Concentration ([1]; Fasted Conditions, −0.5 hours after dosing): 0 ng/mL | Plasma Concentration ([1]; High Fat Breakfast, 0.5 hours after dosing): 2.300 ng/mL | Plasma Concentration ([1]; High Fat Breakfast, 1.0 hours after dosing): 17.392 ng/mL | Plasma Concentration ([1]; High Fat Breakfast, 2.0 hours after dosing): 36.964 ng/mL | Plasma Concentration ([1]; High Fat Breakfast, 3.0 hours after dosing): 56.742 ng/mL | Plasma Concentration ([1]; High Fat Breakfast, 4.0 hours after dosing): 66.817 ng/mL | Plasma Concentration ([1]; High Fat Breakfast, 6.0 hours after dosing): 51.675 ng/mL | Plasma Concentration ([1]; High Fat Breakfast, 8.0 hours after dosing): 30.950 ng/mL | Plasma Concentration ([1]; High Fat Breakfast, 28.0 hours after dosing): 0 ng/mL | Plasma Concentration ([1]; High Fat Breakfast, 48.0 hours after dosing): 0 ng/mL | Plasma Concentration ([1]; High Fat Breakfast, 72.0 hours after dosing): 0 ng/mL | Plasma Concentration ([1]; High Fat Breakfast, −0.5 hours after dosing): 0 ng/mL | dose proportionality of plasma concentrations and dose-adjusted AUC ([2]; 100 mg to 1000 mg, single or multiple doses): consistent with dose proportionality | accumulation ([2]; once a day for 11 days): no significant or dose-related accumulation
